Test results taken from patent US9376418B2, “Substituted pyridine spleen tyrosine kinase (SYK) inhibitors” (Merck Sharp & Dohme Corp., priority 2012, dated 2016).

What follows are molecules tested against T1, recombinant human GST-SYK (Homo sapiens, UniProt P43405) (assay: Homogeneous Time-Resolved Fluorescence (HTRF) assay for the recombinant human Syk enzyme). Conditions: HTRF assay, recombinant human GST-SYK; IC50 given as class symbols; read-out: rhSYK Activity.
T1 construct: purchased Carna Biosciences 08-176
Type: biochemical
Outline: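 GST-hSYK ([…]) was preincubated with inhibitor (0.1% DMSO final) for 10 minutes at room temperature in 15 mM Tris-HCl pH 7.5, 0.01% tween 20, 2 mM DTT. Biotinylated peptide (250 nM), 5 mM magnesium and 25 μM ATP started a 45-minute room-temperature reaction, read by time-resolved fluorescence.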

Compound | IC50
Cc1cc(Nc2nccc(C(F)(F)F)n2)cc(-c2ccc(NC3(C(N)=O)CC3)nc2)c1 [Example 12.8, 1-{[5-(3-methyl-5-{[4-(trifluoromethyl)pyrimidin-2-yl]amino}phenyl)pyridin-2-yl]amino}cyclopropanecarboxamide] | < 100 nM
Cc1cc(Nc2nccc(C(F)(F)F)n2)cc(-c2ccc(NC(C)(C)C(=O)O)nc2)c1 [Example 7.7, 2-methyl-N-[5-(3-methyl-5-{[4-(trifluoromethyl)pyrimidin-2-yl]amino}phenyl)pyridin-2-yl]alanine] | < 100 nM
Cc1cc(Nc2nccc(C(F)(F)F)n2)cc(-c2ccc(NC3(C(=O)O)CCNCC3)nc2)c1 [Example 7.72, 4-{[5-(3-methyl-5-{[4-(trifluoromethyl)pyrimidin-2-yl]amino}phenyl)pyridin-2-yl]amino}piperidine-4-carboxylic acid] | < 100 nM
Cc1cc(Nc2nccc(C(F)(F)F)n2)cc(-c2ccc(N[C@H](Cc3ccccc3)C(=O)O)nc2)c1 [Example 7.96, N-[5-(3-methyl-5-{[4-(trifluoromethyl)pyrimidin-2-yl]amino}phenyl)pyridin-2-yl]-D-phenylalanine] | < 100 nM
Cc1cc(Nc2nccc(C(F)(F)F)n2)cc(-c2ccc(C(=O)N(C)CC(N)=O)nc2)c1 [Example 16.62, N-(2-amino-2-oxoethyl)-N-methyl-5-(3-methyl-5-{[4-(trifluoromethyl)pyrimidin-2-yl]amino}phenyl)pyridine-2-carboxamide] | < 100 nM
Cc1cc(Nc2nccc(C(F)(F)F)n2)cc(-c2ccc(C(=O)NCc3cnn(C)c3)nc2)c1 [Example 16.14, N-[(1-methyl-1H-pyrazol-4-yl)methyl]-5-(3-methyl-5-{[4-(trifluoromethyl)pyrimidin-2-yl]amino}phenyl)pyridine-2-carboxamide] | 100 to 1000 nM
Cc1cc(Nc2nccc(C(F)(F)F)n2)cc(-c2ccc(NCC3CCC(=O)N3)nc2)c1 (stereo not drawn) [Example 7.16, 5-({[5-(3-methyl-5-{[4-(trifluoromethyl)pyrimidin-2-yl]amino}phenyl)pyridin-2-yl]amino}methyl)pyrrolidin-2-one] | < 100 nM
CCOC(=O)CCc1ccc(-c2cc(C)cc(Nc3nccc(C)n3)c2)nc1 [Example 2.36, ethyl 3-(6-{3-methyl-5-[(4-methylpyrimidin-2-yl)amino]phenyl}pyridin-3-yl)propanoate] | 1000 to 10000 nM
Cc1cc(Nc2nccc(C(F)F)n2)cc(-c2ccc(C(C)(O)C3CCC(C(=O)O)CC3)nc2)c1 (single isomer, unassigned) [Example 9.29, trans-4-{(1R or 1S)-1-[5-(3-{[4-(difluoromethyl)pyrimidin-2-yl]amino}-5-methylphenyl)pyridin-2-yl]-1-hydroxyethyl}cyclohexanecarboxylic acid] | < 100 nM
Cn1ccc(-c2cccc(Nc3nccc(C(F)(F)F)n3)c2)cc1=O [Example 5.2, 1-methyl-4-(3-{[4-(trifluoromethyl)pyrimidin-2-yl]amino}phenyl)pyridin-2(1H)-one] | 100 to 1000 nM
Cc1cc(Nc2nccc(C(F)(F)F)n2)cc(-c2ccc(C(=O)O)nc2)c1 [Example 2.1, 5-(3-Methyl-5-{[4-(trifluoromethyl)pyrimidin-2-yl]amino}phenyl)pyridine-2-carboxylic acid] | < 100 nM
O=C(O)CCc1cccc(-c2cccc(Nc3nccc(C(F)(F)F)n3)c2)n1 [Example 2.17, 3-[6-(3-{[4-(trifluoromethyl)pyrimidin-2-yl]amino}phenyl)pyridin-2-yl]propanoic acid] | 100 to 1000 nM
Cc1cc(Nc2nccc(C(F)(F)F)n2)cc(-c2ccc(C(=O)NC(C3CC3)C3CC3)nc2)c1 [Example 16.46, N-(dicyclopropylmethyl)-5-(3-methyl-5-{[4-(trifluoromethyl)pyrimidin-2-yl]amino}phenyl)pyridine-2-carboxamide] | 100 to 1000 nM
Cc1cc(Nc2nccc(C(F)(F)F)n2)cc(-c2ccc(NC(C)(CC(F)(F)F)C(=O)O)nc2)c1 (stereo not drawn) [Example 18.5, 4,4,4-Trifluoro-N-[5-(3-methyl-5-{[4-(trifluoromethyl)pyrimidin-2-yl]amino}phenyl)pyridin-2-yl]isovaline] | < 100 nM
Cc1cc(Nc2nccc(C(F)(F)F)n2)cc(-c2ccc(F)nc2)c1 [Example 4.4, N-[3-(6-fluoropyridin-3-yl)-5-methylphenyl]-4-(trifluoromethyl)pyrimidin-2-amine] | 100 to 1000 nM
Cc1cc(Nc2nccc(C(F)(F)F)n2)cc(-c2ccc(N3CCC[C@H]3C(=O)NCC(=O)O)nc2)c1 [Example 7.83, 1-[5-(3-methyl-5-{[4-(trifluoromethyl)pyrimidin-2-yl]amino}phenyl)pyridin-2-yl]-L-prolylglycine] | < 100 nM
COC(=O)CC(=O)Nc1ccc(-c2cc(C)cc(Nc3nccc(C(F)(F)F)n3)c2)cn1 [Example 8.3, methyl 3-{[5-(3-methyl-5-{[4-(trifluoromethyl)pyrimidin-2-yl]amino}phenyl)pyridin-2-yl]amino}-3-oxopropanoate] | < 100 nM

Compound | IC50
Cc1cc(Nc2nccc(C(F)(F)F)n2)cc(-c2ccc(NCC(=O)NCC(=O)O)nc2)c1 [Example 7.138, N-[5-(3-methyl-5-{[4-(trifluoromethyl)pyrimidin-2-yl]amino}phenyl)pyridin-2-yl]glycylglycine] | < 100 nM
Cc1cc(Nc2nccc(C(F)(F)F)n2)cc(-c2ccc(N3CCCC(C(=O)O)C3)nc2)c1 (stereo not drawn) [Example 7.135, 1-[5-(3-methyl-5-{[4-(trifluoromethyl)pyrimidin-2-yl]amino}phenyl)pyridin-2-yl]piperidine-3-carboxylic acid] | < 100 nM
CCOC(=O)C1CCC(O)(c2ccc(-c3cc(C)cc(Nc4nccc(C)n4)c3)cn2)CC1(C)C (stereo not drawn) [Example 9.40, ethyl 4-hydroxy-2,2-dimethyl-4-(5-{3-methyl-5-[(4-methylpyrimidin-2-yl)amino]phenyl}pyridin-2-yl)cyclohexanecarboxylate] | 100 to 1000 nM
Cc1cc(Nc2nccc(C(F)(F)F)n2)cc(-c2ccc(C(=O)N3CCN(C)C(=O)C3)nc2)c1 [Example 16.20, 1-methyl-4-{[5-(3-methyl-5-{[4-(trifluoromethyl)pyrimidin-2-yl]amino}phenyl)pyridin-2-yl]carbonyl}piperazin-2-one] | < 100 nM
CC1(C)CC(O)(c2ccc(-c3cc(Nc4nccc(C(F)(F)F)n4)cc(C(F)F)c3)cn2)CCC1C(=O)O (single isomer, unassigned) [Example 9.13, (1S,4R or 1R,4S)-4-{5-[3-(difluoromethyl)-5-{[4-(trifluoromethyl)pyrimidin-2-yl]amino}phenyl]pyridin-2-yl}-4-hydroxy-2,2-dimethylcyclohexanecarboxylic acid] | < 100 nM
CC(=O)NCCCNc1cc(-c2cc(C)cc(Nc3nccc(C(F)(F)F)n3)c2)ccn1 [Example 15.80, N-(3-{[4-(3-methyl-5-{[4-(trifluoromethyl)pyrimidin-2-yl]amino}phenyl)pyridin-2-yl]amino}propyl)acetamide] | 100 to 1000 nM
Cc1cc(Nc2nccc(C(F)(F)F)n2)cc(-c2ccc(C(=O)NCC(C)(C)O)nc2)c1 [Example 16.10, N-(2-hydroxy-2-methylpropyl)-5-(3-methyl-5-{[4-(trifluoromethyl)pyrimidin-2-yl]amino}phenyl)pyridine-2-carboxamide] | 100 to 1000 nM
Cc1cc(Nc2ncc(F)c(C)n2)cc(-c2ccc(N[C@H]3CC[C@H](C(=O)O)CC3)nc2)c1 [Example 2.120, trans-4-[(5-{3-[(5-fluoro-4-methylpyrimidin-2-yl)amino]-5-methylphenyl}pyridin-2-yl)amino]cyclohexanecarboxylic acid] | < 100 nM
Cc1cc(Nc2nccc(C(F)(F)F)n2)cc(-c2ccc(C(=O)N3CC[C@H](CO)C3)nc2)c1 [Example 16.43, [(3S)-1-{[5-(3-methyl-5-{[4-(trifluoromethyl)pyrimidin-2-yl]amino}phenyl)pyridin-2-yl]carbonyl}pyrrolidin-3-yl]methanol] | < 100 nM
CCCCOC(=O)[C@H]1CC[C@H](C(C)(O)c2ccc(-c3cc(C)cc(Nc4nccc(OC)n4)c3)cn2)CC1 (relative stereo) [Example 9.49, butyl trans-4-[1-hydroxy-1-(5-{3-[(4-methoxypyrimidin-2-yl)amino]-5-methylphenyl}pyridin-2-yl)ethyl]cyclohexanecarboxylate] | < 100 nM
CCOC(=O)CCc1ccc(-c2cc(C)cc(Nc3nccc(C)n3)c2)cn1 [Example 2.87, ethyl 3-(5-{3-methyl-5-[(4-methylpyrimidin-2-yl)amino]phenyl}pyridin-2-yl)propanoate] | 100 to 1000 nM
Cc1cc(Nc2nccc(C(F)(F)F)n2)cc(-c2ccc(C3(O)COC3)nc2)c1 [Example 9.55, 3-[5-(3-methyl-5-{[4-(trifluoromethyl)pyrimidin-2-yl]amino}phenyl)pyridin-2-yl]oxetan-3-ol] | < 100 nM
Cc1cc(Nc2nccc(C(F)(F)F)n2)cc(-c2cccc(CCC(=O)O)n2)c1 [Example 2.31, 3-[6-(3-methyl-5-{[4-(trifluoromethyl)pyrimidin-2-yl]amino}phenyl)pyridin-2-yl]propanoic acid] | < 100 nM
Cc1cc(Nc2nccc(C(F)(F)F)n2)cc(-c2ccc(NC(C)(C#N)C(C)(C)C)nc2)c1 (stereo not drawn) [Example 7.115, 2,3,3-trimethyl-2-{[5-(3-methyl-5-{[4-(trifluoromethyl)pyrimidin-2-yl]amino}phenyl)pyridin-2-yl]amino}butanenitrile] | 100 to 1000 nM
Cc1cc(Nc2nccc(C(F)(F)F)n2)cc(-c2ccc(NCCCN)nc2)c1 [Example 7.26, N-[5-(3-methyl-5-{[4-(trifluoromethyl)pyrimidin-2-yl]amino}phenyl)pyridin-2-yl]propane-1,3-diamine] | < 100 nM
Cc1cc(Nc2nccc(C(F)(F)F)n2)cc(-c2ccnc([C@]3(O)CC[C@@H](O)CC3)c2)c1 [Example 9.3, Cis-1-[4-(3-methyl-5-{[4-(trifluoromethyl)pyrimidin-2-yl]amino}phenyl)pyridine-2-yl]cyclohexane-1,4-diol] | < 100 nM
